Here are results for eight compounds from patent US11673876B2, “Substituted aminobenzyl heteroaryl compounds as EGFR and/or PI3K inhibitors” (Mekanistic Therapeutics LLC, priority 2020, dated 2023).

One data set addresses EGFR (Homo sapiens (Human), UniProt P00533). Description: Z'-LYTE / Adapta kinase assay, EGFR. The class given is biochemical. The settings on record: for inhibition at 0.1 µM: read-out: EGFR % Inh. @ 100 nM. An outline of the steps:
(§1)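 Z'-LYTE FRET-peptide phosphorylation read as coumarin/fluorescein emission ratio (400 nm excitation); Adapta immunoassay detects ADP formation. 60-min kinase reaction, 60-min development, room temperature.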

A short description of data set [1]: Metabolic stability in human liver microsomes. The class given is in vitro ADME. The method, then:
(§2) Working solution: 5 μL of compound and control stock solution (10 mM in dimethyl sulfoxide (DMSO)) were diluted with 495 μL of acetonitrile (ACN) (intermediate solution concentration: 100 μM, 99% ACN)
(§3) NADPH Cofactor Preparation: NADPH powder: β-Nicotinamide adenine dinucleotide phosphate reduced form, tetrasodium salt; NADPH·4Na. The appropriate amount of NADPH powder was weighed and diluted into a 10 mM MgCl2 solution (working solution concentration: 10 unit/mL; final concentration in reaction system: 1 unit/mL)
(§4) Liver Microsomes Preparation: The appropriate concentrations of microsome working solutions were prepared in 100 mM potassium phosphate buffer. Cold (4° C.) acetonitrile (ACN) containing 200 ng/mL tolbutamide and 200 ng/mL labetalol as internal standards (1S) was used as the stop solution
(§5) Assay Procedure: Pre-warm empty ‘Incubation’ plates T60 and NCF60 for 10 minutes. Dilute liver microsomes to 0.56 mg/mL in 100 mM phosphate buffer. Transfer 445 μL microsome working solutions (0.56 mg/mL) into pre-warmed ‘Incubation’ plates T60 and NCF60, Then pre-incubate ‘Incubation’ plates T60 and NCF60 for 10 min at 37° C. with constant shaking. Transfer 54 μL liver microsomes to blank plate, then add 6 μL NAPDH cofactor to blank plate, and then add 180 μL quenching solution to blank plate. Add 5 μL compound working solution (100 μM) into ‘incubation’ plates (T60 and NCF60) containing microsomes and mix 3 times thoroughly.
(§6) For the NCF60 plate, add 50 μL of buffer and mix 3 times thoroughly. Start timing; plate will be incubated at 37° C. for 60 min while shaking. In ‘Quenching’ plate T0, add 180 μL quenching solution and 6 μL NAPDH cofactor. Ensure the plate is chilled to prevent evaporation. For the T60 plate, mix 3 times thoroughly, and immediately remove 54 μL mixture for the 0-min time point to ‘Quenching’ plate. Then add 44 μL NAPDH cofactor to incubation plate (T60). Start timing; plate will be incubated at 37° C. for 60 min while shaking. At 5, 10, 20, 30, and 60 min, add 180 μL quenching solution to ‘Quenching’ plates, mix once, and serially transfer 60 μL sample from T60 plate per time point to ‘Quenching’ plates. For NCF60: mix once, and transfer 60 μL sample from the NCF60 incubation to ‘Quenching’ plate containing quenching solution at the 60-min time point. All sampling plates are shaken for 10 min, then centrifuged at 4000 rpm for 20 minutes at 4° C. Transfer 80 μL supernatant into 240 μL HPLC water, and mix by plate shaker for 10 min. Each bioanalysis plate was sealed and shaken for 10 minutes prior to LC-MS/MS analysis.
(§7) The equation of first order kinetics was used to calculate T½ and CLint(mic) (μL/min/mg). Equation of first order kinetics: […]
(§8) The biological stability of the compounds of the disclosure can be measured by determining its ½ life in the presence microsomes. Presented in Table 5, is the ½ life of selected compounds of the disclosure in the presence of human liver microsomes (HLM) or mouse liver microsomes (MLM) as described above. In Table 5, ½ life is presented as “++++” (value is greater than 60 minutes), “+++” (value is greater than 30 minutes and less than or equal to 60 minutes), “++” (value is greater than 15 minutes and less than or equal to 30 minutes) and “+” (value is 15 minutes or less).

A short description of data set [2]: Metabolic stability in mouse liver microsomes. The class given is in vitro ADME. Here is the method: as §2, §3, §4, §5, §6, §7, §8
Another data set deals with DNA-PK (Homo sapiens (Human), UniProt P78527). The data set can be described thus: Z'-LYTE / Adapta kinase assay, DNA-PK. The class given is biochemical. The note with it: for inhibition at 0.1 µM: read-out: DNA-PK % Inh. @ 100 nM. A digest of the protocol:
as §1

Another data set has as its target PI3Ka (Homo sapiens (Human), UniProt P42336). Description: Z'-LYTE / Adapta kinase assay, PI3Ka. The class given is biochemical. The note with it: for inhibition at 0.1 µM: read-out: PI3Ka % Inh. @ 100 nM. A digest of the protocol:
as §1

pIC50: −log10 of the molar value.

EGFR, sequence (P00533 25-1210): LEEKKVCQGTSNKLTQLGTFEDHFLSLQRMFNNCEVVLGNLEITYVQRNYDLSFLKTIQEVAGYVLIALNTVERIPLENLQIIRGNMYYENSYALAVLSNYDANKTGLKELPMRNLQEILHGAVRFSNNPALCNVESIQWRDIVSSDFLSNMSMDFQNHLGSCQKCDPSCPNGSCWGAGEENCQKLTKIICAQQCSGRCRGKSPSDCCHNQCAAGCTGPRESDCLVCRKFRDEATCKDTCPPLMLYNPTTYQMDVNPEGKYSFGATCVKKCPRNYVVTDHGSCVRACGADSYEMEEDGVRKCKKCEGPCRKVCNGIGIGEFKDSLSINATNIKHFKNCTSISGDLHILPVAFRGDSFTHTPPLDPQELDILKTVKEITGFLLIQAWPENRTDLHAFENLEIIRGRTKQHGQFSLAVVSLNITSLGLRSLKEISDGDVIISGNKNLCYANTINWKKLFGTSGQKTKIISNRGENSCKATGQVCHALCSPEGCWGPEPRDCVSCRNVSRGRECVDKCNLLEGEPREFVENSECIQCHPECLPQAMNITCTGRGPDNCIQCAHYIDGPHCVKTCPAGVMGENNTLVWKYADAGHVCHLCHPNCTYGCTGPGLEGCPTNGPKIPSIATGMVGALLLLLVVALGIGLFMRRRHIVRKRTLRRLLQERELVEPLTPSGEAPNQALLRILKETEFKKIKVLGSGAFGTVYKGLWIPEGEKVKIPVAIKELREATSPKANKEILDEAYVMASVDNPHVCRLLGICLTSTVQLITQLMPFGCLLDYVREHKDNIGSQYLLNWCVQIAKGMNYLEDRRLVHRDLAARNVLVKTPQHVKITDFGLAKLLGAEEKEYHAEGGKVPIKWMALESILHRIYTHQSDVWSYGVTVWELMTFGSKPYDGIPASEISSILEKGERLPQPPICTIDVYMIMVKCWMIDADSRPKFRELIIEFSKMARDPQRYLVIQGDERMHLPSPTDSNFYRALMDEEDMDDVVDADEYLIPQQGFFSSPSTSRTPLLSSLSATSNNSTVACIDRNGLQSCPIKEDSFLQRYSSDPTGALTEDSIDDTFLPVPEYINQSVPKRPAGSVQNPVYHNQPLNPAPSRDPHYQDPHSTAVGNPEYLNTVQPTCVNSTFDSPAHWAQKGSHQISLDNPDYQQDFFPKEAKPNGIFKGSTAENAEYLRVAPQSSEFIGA
PI3Ka, sequence (P42336 whole entry): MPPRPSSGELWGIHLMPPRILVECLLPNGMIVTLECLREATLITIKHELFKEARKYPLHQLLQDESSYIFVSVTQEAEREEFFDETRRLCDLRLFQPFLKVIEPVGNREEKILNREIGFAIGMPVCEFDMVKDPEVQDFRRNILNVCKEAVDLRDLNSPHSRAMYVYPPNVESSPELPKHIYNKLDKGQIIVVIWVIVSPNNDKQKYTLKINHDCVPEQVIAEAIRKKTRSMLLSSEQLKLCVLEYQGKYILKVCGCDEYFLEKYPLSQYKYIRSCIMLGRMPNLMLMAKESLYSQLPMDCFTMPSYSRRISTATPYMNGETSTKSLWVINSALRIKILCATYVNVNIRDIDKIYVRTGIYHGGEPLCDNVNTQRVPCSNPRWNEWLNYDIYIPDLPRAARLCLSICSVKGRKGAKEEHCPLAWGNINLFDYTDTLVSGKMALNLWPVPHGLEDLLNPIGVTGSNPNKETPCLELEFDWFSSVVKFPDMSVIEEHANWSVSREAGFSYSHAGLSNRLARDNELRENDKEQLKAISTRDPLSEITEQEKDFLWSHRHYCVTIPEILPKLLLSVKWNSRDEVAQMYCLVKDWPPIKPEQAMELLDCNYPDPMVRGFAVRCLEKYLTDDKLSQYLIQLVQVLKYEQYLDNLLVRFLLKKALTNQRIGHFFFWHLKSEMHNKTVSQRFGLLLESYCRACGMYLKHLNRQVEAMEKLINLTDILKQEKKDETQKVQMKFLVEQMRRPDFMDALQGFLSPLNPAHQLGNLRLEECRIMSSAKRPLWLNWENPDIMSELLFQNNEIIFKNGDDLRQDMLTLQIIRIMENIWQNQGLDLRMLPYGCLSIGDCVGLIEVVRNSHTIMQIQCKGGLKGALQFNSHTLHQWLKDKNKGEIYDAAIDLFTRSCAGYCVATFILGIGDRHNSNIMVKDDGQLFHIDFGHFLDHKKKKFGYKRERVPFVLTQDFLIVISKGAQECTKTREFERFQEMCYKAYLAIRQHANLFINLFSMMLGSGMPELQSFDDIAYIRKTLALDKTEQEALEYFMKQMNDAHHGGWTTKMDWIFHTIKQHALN
PI3Ka, sequence (P27986 whole entry partner): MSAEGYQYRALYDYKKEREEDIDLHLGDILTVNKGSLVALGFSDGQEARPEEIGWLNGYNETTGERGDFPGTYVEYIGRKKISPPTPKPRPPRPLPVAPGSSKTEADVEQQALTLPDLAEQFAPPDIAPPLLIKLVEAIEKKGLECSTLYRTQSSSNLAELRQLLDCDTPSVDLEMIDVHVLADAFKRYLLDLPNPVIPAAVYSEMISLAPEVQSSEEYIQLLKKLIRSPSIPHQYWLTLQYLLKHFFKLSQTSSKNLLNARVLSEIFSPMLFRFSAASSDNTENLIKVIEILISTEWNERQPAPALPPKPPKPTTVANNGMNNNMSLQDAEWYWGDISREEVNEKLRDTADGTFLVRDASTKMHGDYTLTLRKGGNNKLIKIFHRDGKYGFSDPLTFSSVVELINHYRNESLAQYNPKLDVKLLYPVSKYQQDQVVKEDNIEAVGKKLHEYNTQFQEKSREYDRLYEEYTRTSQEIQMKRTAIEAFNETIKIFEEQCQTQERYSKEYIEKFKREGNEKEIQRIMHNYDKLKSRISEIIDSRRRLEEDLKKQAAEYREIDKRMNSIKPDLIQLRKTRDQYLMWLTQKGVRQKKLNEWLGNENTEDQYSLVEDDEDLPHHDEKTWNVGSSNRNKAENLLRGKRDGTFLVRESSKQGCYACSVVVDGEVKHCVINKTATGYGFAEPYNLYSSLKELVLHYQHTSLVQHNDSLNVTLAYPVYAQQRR

`CC(Nc1c(C#N)cnc2ccc(-c3cnc(Cl)c(NS(C)(=O)=O)c3)cc12)c1ccccc1` (stereo not drawn) [Compound 48, N-[2-chloro-5-[3-cyano-4-(1-phenylethylamino)-6-quinolyl]-3-pyridyl]methanesulfonamide]: the inhibition at 0.1 µM on EGFR is 80 to 90%; on DNA-PK, over 90%; at PI3Ka it was over 90%. In addition, the “½ life minutes (HLM)” value in data set [1] is “++++ (value is greater than 60 minutes)”. Also, the “½ life minutes (MLM)” value in data set [2] is “++++ (value is greater than 60 minutes)”.
Turning to `C[C@@H](Nc1c(C#N)cnc2ccc(-c3cnc(Cl)c(NS(C)(=O)=O)c3)cc12)c1ccccc1` [Compound 48R, N-(2-chloro-5-(3-cyano-4-((1R-phenylethyl)amino)quinolin-6-yl)pyridin-3-yl)methanesulfonamide], the pIC50 against EGFR is 7.70 to 8.70. Further, the inhibition at 0.1 µM on EGFR, at DNA-PK and on PI3Ka was over 90% each time. Also, the “½ life minutes (HLM)” value in data set [1] was “+++ (value is greater than 30 minutes and less than or equal to 60 minutes)”. Moreover, the “½ life minutes (MLM)” value in data set [2] was “++++ (value is greater than 60 minutes)”.
Turning to `C[C@H](Nc1c(C#N)cnc2ccc(-c3cnc(Cl)c(NS(C)(=O)=O)c3)cc12)c1ccccc1` [Compound 48S, N-(2-chloro-5-(3-cyano-4-((1S-phenylethyl)amino)quinolin-6-yl)pyridin-3-yl)methanesulfonamide], at EGFR, the pIC50 was under 6.70 and the inhibition at 0.1 µM is under 10%. The “½ life minutes (HLM)” value in data set [1] was “++++ (value is greater than 60 minutes)”. In addition, the “½ life minutes (MLM)” value in data set [2] is on record as “++++ (value is greater than 60 minutes)”. For the same compound, on DNA-PK, the negative logarithm of the IC50 (pIC50) was over 8.70 and the inhibition at 0.1 µM was over 90%. Further, at PI3Ka, the “PI3Ka IC50 (nM)” value was “++++ (value is 2 nM or less)” and the inhibition at 0.1 µM was over 90%.
With `C[C@@H](Nc1c(C#N)cnc2ccc(-c3cnc(Cl)c(NS(C)(=O)=O)c3)cc12)c1ccc(F)cc1` [Compound 97R, N-[2-chloro-5-[3-cyano-4-[[(1R)-1-(4-fluorophenyl)ethyl]amino]-6-quinolyl]-3-pyridyl]methanesulfonamide], the inhibition at 0.1 µM on EGFR was 10 to 80%; on DNA-PK it was over 90%. In addition, the “½ life minutes (HLM)” value in data set [1] is on record as “++++ (value is greater than 60 minutes)”. For the same compound, the “½ life minutes (MLM)” value in data set [2] is reported as “++++ (value is greater than 60 minutes)”.
As to `C[C@H](Nc1c(C#N)cnc2ccc(-c3cnc(Cl)c(NS(C)(=O)=O)c3)cc12)c1ccc(F)cc1` [Compound 97S, N-(2-chloro-5-(3-cyano-4-((1S-(4-fluorophenyl)ethyl)amino)quinolin-6-yl)pyridin-3-yl)methanesulfonamide], the figures for the pIC50 at EGFR, against DNA-PK and at PI3Ka were under 6.70, over 8.70 and over 8.70, respectively. The inhibition at 0.1 µM is under 10% at EGFR, over 90% on DNA-PK and over 90% at PI3Ka. Further, the “½ life minutes (HLM)” value in data set [1] is reported as “++++ (value is greater than 60 minutes)”. In addition, the “½ life minutes (MLM)” value in data set [2] was “++++ (value is greater than 60 minutes)”.
Take `CS(=O)(=O)Nc1cc(-c2ccc3ncc(C#N)c(NC4(c5ccccc5)CC4)c3c2)cnc1Cl` [Compound 106, N-[2-chloro-5-[3-cyano-4-[(1-phenylcyclopropyl)amino]-6-quinolyl]-3-pyridyl]methanesulfonamide]: the inhibition at 0.1 µM is 10 to 80% at EGFR and over 90% at DNA-PK. In data set [1], the “½ life minutes (HLM)” value is recorded as “++++ (value is greater than 60 minutes)”. Further, the “½ life minutes (MLM)” value in data set [2] is “+++ (value is greater than 30 minutes and less than or equal to 60 minutes)”.
Consider `C[C@H](Nc1ncnc2ccc(-c3cnc(Cl)c(NS(C)(=O)=O)c3)cc12)c1ccc(F)cc1` [Compound 111S, N-[2-chloro-5-[4-[[(1S)-1-(4-fluorophenyl)ethyl]amino]quinazolin-6-yl]-3-pyridyl]methanesulfonamide], for which, on EGFR, the pIC50 was under 6.70 and the inhibition at 0.1 µM is under 10%. Besides, the “½ life minutes (HLM)” value in data set [1] is “++++ (value is greater than 60 minutes)”. In addition, the “½ life minutes (MLM)” value in data set [2] is “++++ (value is greater than 60 minutes)”. Further, at DNA-PK, the pIC50 is over 8.70 and the inhibition at 0.1 µM is over 90%. Moreover, at PI3Ka, the “PI3Ka IC50 (nM)” value was “++++ (value is 2 nM or less)” and the inhibition at 0.1 µM was over 90%.
Regarding `CC(Nc1ncnc2ccc(-c3cnc(N)nc3)cc12)c1ccc(F)cc1` (stereo not drawn) [Compound 121, 6-(2-aminopyrimidin-5-yl)-N-(1-(4-fluorophenyl)ethyl)quinazolin-4-amine], the pIC50 against EGFR was 7.70 to 8.70; at DNA-PK, under 6.70. For the same compound, the values for the inhibition at 0.1 µM on EGFR, at DNA-PK and on PI3Ka were 80 to 90%, 10 to 80% and 10 to 80%, respectively. The “½ life minutes (HLM)” value in data set [1] was “++++ (value is greater than 60 minutes)”. Besides, the “½ life minutes (MLM)” value in data set [2] is recorded as “++++ (value is greater than 60 minutes)”. In addition, the “PI3Ka IC50 (nM)” value at PI3Ka is listed as “+ (value is greater than 200 nM)”.
